Test results published in the NIST ThermoML archive (doi:10.1021/je800110r).
Numbers after ± are expanded uncertainties.

Conditions: 283.15 K, Liquid, Vibrating tube method

Molecule `CCCCCCCCCC` [decane] has a mass density (23237 kPa) of 753.1 ± 2 kg/m3, a mass density (23257 kPa) of 753.2 ± 2 kg/m3 and a mass density (23291 kPa) of 753.1 ± 2 kg/m3. For the same molecule, the mass density (23311 kPa) was 753.2 ± 2 kg/m3, the mass density (23338 kPa) was 753.1 ± 2 kg/m3 and the mass density (23363 kPa) was 753.2 ± 2 kg/m3. It also gave a mass density (23386 kPa) of 753.2 ± 2 kg/m3, a mass density (23410 kPa) of 753.2 ± 2 kg/m3 and a mass density (23441 kPa) of 753.2 ± 2 kg/m3. The mass density (23462 kPa) was 753.2 ± 2 kg/m3, the mass density (23489 kPa) was 753.3 ± 2 kg/m3 and the mass density (23513 kPa) was 753.1 ± 2 kg/m3. The mass density (23530 kPa) was 753.2 ± 2 kg/m3, the mass density (23558 kPa) was 753.3 ± 2 kg/m3 and the mass density (23590 kPa) was 753.3 ± 2 kg/m3. For the same molecule, the mass density (23611 kPa) was 753.3 ± 2 kg/m3, the mass density (23638 kPa) was 753.3 ± 2 kg/m3 and the mass density (23667 kPa) was 753.4 ± 2 kg/m3. The mass density (23689 kPa) was 753.3 ± 2 kg/m3, the mass density (23714 kPa) was 753.3 ± 2 kg/m3 and the mass density (23743 kPa) was 753.4 ± 2 kg/m3. It also gave a mass density (23766 kPa) of 753.4 ± 2 kg/m3, a mass density (23786 kPa) of 753.5 ± 2 kg/m3 and a mass density (23812 kPa) of 753.4 ± 2 kg/m3. For the same molecule, the mass density (23835 kPa) was 753.5 ± 2 kg/m3, the mass density (23855 kPa) was 753.4 ± 2 kg/m3 and the mass density (23875 kPa) was 753.4 ± 2 kg/m3. It also gave a mass density (23904 kPa) of 753.5 ± 2 kg/m3, a mass density (23928 kPa) of 753.5 ± 2 kg/m3 and a mass density (23957 kPa) of 753.5 ± 2 kg/m3. The mass density (23977 kPa) was 753.6 ± 2 kg/m3, the mass density (24007 kPa) was 753.5 ± 2 kg/m3 and the mass density (24024 kPa) was 753.6 ± 2 kg/m3. The mass density (24061 kPa) was 753.7 ± 2 kg/m3, the mass density (24135 kPa) was 753.6 ± 2 kg/m3 and the mass density (24155 kPa) was 753.6 ± 2 kg/m3. It also gave a mass density (24179 kPa) of 753.7 ± 2 kg/m3, a mass density (24242 kPa) of 753.6 ± 2 kg/m3 and a mass density (24265 kPa) of 753.7 ± 2 kg/m3. It also gave a mass density (24286 kPa) of 753.7 ± 2 kg/m3, a mass density (24309 kPa) of 753.7 ± 2 kg/m3 and a mass density (24330 kPa) of 753.8 ± 2 kg/m3. The mass density (24362 kPa) was 753.7 ± 2 kg/m3, the mass density (24389 kPa) was 753.7 ± 2 kg/m3 and the mass density (24410 kPa) was 753.7 ± 2 kg/m3. The mass density (24434 kPa) was 753.8 ± 2 kg/m3, the mass density (24452 kPa) was 753.9 ± 2 kg/m3 and the mass density (24490 kPa) was 753.9 ± 2 kg/m3. The mass density (24511 kPa) was 753.7 ± 2 kg/m3, the mass density (24533 kPa) was 753.8 ± 2 kg/m3 and the mass density (24564 kPa) was 753.9 ± 2 kg/m3. The mass density (24596 kPa) was 753.8 ± 2 kg/m3, the mass density (24618 kPa) was 753.9 ± 2 kg/m3 and the mass density (24642 kPa) was 753.8 ± 2 kg/m3. The mass density (24660 kPa) was 753.9 ± 2 kg/m3, the mass density (24682 kPa) was 753.9 ± 2 kg/m3 and the mass density (24710 kPa) was 754 ± 2 kg/m3. It also gave a mass density (24739 kPa) of 753.9 ± 2 kg/m3, a mass density (24764 kPa) of 753.9 ± 2 kg/m3 and a mass density (24796 kPa) of 754 ± 2 kg/m3. It also gave a mass density (24819 kPa) of 754 ± 2 kg/m3, a mass density (24845 kPa) of 754.1 ± 2 kg/m3 and a mass density (24871 kPa) of 754.1 ± 2 kg/m3. It also gave a mass density (24904 kPa) of 754.2 ± 2 kg/m3, a mass density (24924 kPa) of 754.1 ± 2 kg/m3 and a mass density (24954 kPa) of 754.2 ± 2 kg/m3. The mass density (24981 kPa) was 754.1 ± 2 kg/m3, the mass density (25004 kPa) was 754.2 ± 2 kg/m3 and the mass density (25025 kPa) was 754.1 ± 2 kg/m3. It also gave a mass density (25048 kPa) of 754 ± 2 kg/m3, a mass density (25068 kPa) of 754.2 ± 2 kg/m3 and a mass density (25099 kPa) of 754.3 ± 2 kg/m3. For the same molecule, the mass density (25121 kPa) was 754.2 ± 2 kg/m3, the mass density (25141 kPa) was 754.3 ± 2 kg/m3 and the mass density (25168 kPa) was 754.2 ± 2 kg/m3. The mass density (25199 kPa) was 754.3 ± 2 kg/m3, the mass density (25220 kPa) was 754.3 ± 2 kg/m3 and the mass density (25248 kPa) was 754.2 ± 2 kg/m3. It also gave a mass density (25268 kPa) of 754.3 ± 2 kg/m3, a mass density (25286 kPa) of 754.3 ± 2 kg/m3 and a mass density (25313 kPa) of 754.2 ± 2 kg/m3. The mass density (25335 kPa) was 754.3 ± 2 kg/m3, the mass density (25366 kPa) was 754.4 ± 2 kg/m3 and the mass density (25398 kPa) was 754.5 ± 2 kg/m3. The mass density (25416 kPa) was 754.3 ± 2 kg/m3, the mass density (25477 kPa) was 754.4 ± 2 kg/m3 and the mass density (25498 kPa) was 754.4 ± 2 kg/m3. The mass density (25523 kPa) was 754.5 ± 2 kg/m3, the mass density (25544 kPa) was 754.5 ± 2 kg/m3 and the mass density (25566 kPa) was 754.5 ± 2 kg/m3. It also gave a mass density (25591 kPa) of 754.5 ± 2 kg/m3, a mass density (25620 kPa) of 754.5 ± 2 kg/m3 and a mass density (25645 kPa) of 754.5 ± 2 kg/m3. For the same molecule, the mass density (25669 kPa) was 754.5 ± 2 kg/m3, the mass density (25695 kPa) was 754.6 ± 2 kg/m3 and the mass density (25712 kPa) was 754.5 ± 2 kg/m3. It also gave a mass density (25739 kPa) of 754.7 ± 2 kg/m3, a mass density (25768 kPa) of 754.7 ± 2 kg/m3 and a mass density (25788 kPa) of 754.7 ± 2 kg/m3. It also gave a mass density (25818 kPa) of 754.6 ± 2 kg/m3, a mass density (25845 kPa) of 754.4 ± 2 kg/m3 and a mass density (25865 kPa) of 754.6 ± 2 kg/m3. It also gave a mass density (25888 kPa) of 754.7 ± 2 kg/m3, a mass density (25908 kPa) of 754.6 ± 2 kg/m3 and a mass density (25939 kPa) of 754.7 ± 2 kg/m3. The mass density (25967 kPa) was 754.7 ± 2 kg/m3, the mass density (25992 kPa) was 754.7 ± 2 kg/m3 and the mass density (26022 kPa) was 754.7 ± 2 kg/m3. The mass density (26046 kPa) was 754.8 ± 2 kg/m3, the mass density (26065 kPa) was 754.7 ± 2 kg/m3 and the mass density (26099 kPa) was 754.8 ± 2 kg/m3. For the same molecule, the mass density (26119 kPa) was 754.9 ± 2 kg/m3, the mass density (26136 kPa) was 754.7 ± 2 kg/m3 and the mass density (26166 kPa) was 754.8 ± 2 kg/m3. The mass density (26197 kPa) was 754.7 ± 2 kg/m3, the mass density (26220 kPa) was 754.9 ± 2 kg/m3 and the mass density (26245 kPa) was 754.8 ± 2.1 kg/m3. The mass density (26273 kPa) was 754.8 ± 2.1 kg/m3, the mass density (26300 kPa) was 754.8 ± 2.1 kg/m3 and the mass density (26324 kPa) was 754.9 ± 2.1 kg/m3. The mass density (26341 kPa) was 755 ± 2.1 kg/m3, the mass density (26368 kPa) was 754.9 ± 2.1 kg/m3 and the mass density (26389 kPa) was 755 ± 2.1 kg/m3. It also gave a mass density (26421 kPa) of 755 ± 2.1 kg/m3, a mass density (26445 kPa) of 755 ± 2.1 kg/m3 and a mass density (26466 kPa) of 755 ± 2.1 kg/m3. The mass density (26490 kPa) was 755 ± 2.1 kg/m3, the mass density (26510 kPa) was 755.1 ± 2.1 kg/m3 and the mass density (26538 kPa) was 755.1 ± 2.1 kg/m3. It also gave a mass density (26567 kPa) of 755.1 ± 2.1 kg/m3, a mass density (26591 kPa) of 755 ± 2.1 kg/m3 and a mass density (26624 kPa) of 755.2 ± 2.1 kg/m3. The mass density (26652 kPa) was 755.2 ± 2.1 kg/m3, the mass density (26677 kPa) was 755.2 ± 2.1 kg/m3 and the mass density (26694 kPa) was 755.2 ± 2.1 kg/m3. The mass density (26726 kPa) was 755.2 ± 2.1 kg/m3 and the mass density (26754 kPa) was 755.3 ± 2.1 kg/m3.
